We go through 10 molecules from patent US20260022143A1, “Cyclic Peptide Inhibitors of IL-23” (JANSSEN PHARMACEUTICA NV, priority 2022, published 2026).

One data set addresses T1, IL-23R (Homo sapiens, UniProt Q5VWK5).
T1 construct: host or cells: HEK293
T1 sequence (Q5VWK5 24-629): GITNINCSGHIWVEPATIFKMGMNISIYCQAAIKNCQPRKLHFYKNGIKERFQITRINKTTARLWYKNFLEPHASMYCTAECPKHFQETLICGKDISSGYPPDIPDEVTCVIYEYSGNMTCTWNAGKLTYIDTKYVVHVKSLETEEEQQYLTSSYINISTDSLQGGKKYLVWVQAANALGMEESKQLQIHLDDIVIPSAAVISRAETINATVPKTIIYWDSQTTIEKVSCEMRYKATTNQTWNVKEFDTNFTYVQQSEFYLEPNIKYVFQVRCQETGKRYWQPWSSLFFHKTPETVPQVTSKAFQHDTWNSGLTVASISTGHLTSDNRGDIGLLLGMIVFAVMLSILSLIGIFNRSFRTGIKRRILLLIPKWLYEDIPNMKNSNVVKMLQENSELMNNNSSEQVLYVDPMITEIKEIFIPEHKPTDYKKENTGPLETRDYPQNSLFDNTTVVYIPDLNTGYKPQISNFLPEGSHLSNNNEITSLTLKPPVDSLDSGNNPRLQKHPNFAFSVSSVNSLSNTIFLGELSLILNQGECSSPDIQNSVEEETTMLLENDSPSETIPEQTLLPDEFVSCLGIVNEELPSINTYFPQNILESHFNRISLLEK
As to the kind of experiment: IL23R Reporter Assay. The conditions noted are these: HEK293 cells containing IL-23R, IL-12RP1 and STAT-inducible firefly luciferase reporter; 10 ng/mL IL-23 (EC90); 5 h at 37° C.; read-out: IL23R Reporter Assay. Format: cell-based. In general terms: Reporter assays use an easily measured gene product as a stand-in for the process of interest.

Data set [1] is described as follows: Exposed Polar Surface Area (EPSA). Type of data set: physicochemical. As to conditions: SFC on Chirex 3014 column, sample 1 mM DMSO stock. The method in brief:
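Chirex 3014 column, 35 °C, 4 mL/min; CO2/MeOH + 20 mM NH4 formate, 5→60% modifier at 20%/min. UV/MS detection. EPSA (Å^2) from retention time vs 8-standard calibration line; duplicates; 1 mM DMSO stock injected undiluted.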

Where two headings read alike, the source gives them in different places. Positions of bridges follow the written chain, without caps; N, C: chain ends. Non-standard residues stand in square brackets, D forms with d. Residues, ends and D or L forms follow the SMILES beside them. *: point of attachment. Me3N+(CH2)2O(CH2)2O(CH2)2CO = C[N+](C)(C)CCOCCOCCC(=O)*; CH2CH2OCH2CH2OCH2CH2NMe3+ = C[N+](C)(C)CCOCCOCC*; Trp(7-Me) = Cc1cccc2c(C[C@H](N)C(=O)O)c[nH]c12; Hexanoyl(6-NMe3+) = C[N+](C)(C)CCCCCC(=O)*; 2Nal = N[C@@H](Cc1ccc2ccccc2c1)C(=O)O; AEF = NCCOc1ccc(C[C@H](N)C(=O)O)cc1; X19 = C[N+](C)(C)C[C@@H](CC(=O)O)N*; X22 = CN1CC[N+](C)(CCOCCOCC*)CC1; 3Pal = N[C@@H](Cc1cccnc1)C(=O)O; Lys(Me) = CNCCCC[C@H](N)C(=O)O; Pen = CC(C)(S)[C@H](N)C(=O)O; X8 = C[N+](C)(C)CCCCCCCC*; Thp = NC1(C(=O)O)CCOCC1; X3 = C[N+](C)(C)CCCCC*; Sar = CNCC(=O)O

As for `CC(=O)N(C)CCCC[C@@H]1NC(=O)[C@H](Cc2c[nH]c3c(C)cccc23)NC(=O)[C@H]([C@@H](C)O)NC(=O)[C@H](CC(=O)N(C)C)NC(=O)[C@@H](NC(=O)CCOCCOCC[N+](C)(C)C)C(C)(C)SSC(C)(C)[C@@H](C(=O)N[C@@H](Cc2ccc(OCCOCCOCC[N+](C)(C)C)cc2)C(=O)N[C@@H](Cc2ccc3ccccc3c2)C(=O)NC2(C(=O)N[C@@H](CCC(=O)O)C(=O)N[C@@H](CC(N)=O)C(=O)N[C@@H](Cc3cccnc3)C(=O)N(C)CC(=O)N(C)C)CCOCC2)NC1=O` [compound 184, cPEG3aCO-Pen(3)-N(N(Me)2)-T-7MeW-K(NMeAc)-Pen(3)-APEG3F-2Nal-THP-E-N-3Pya-Sar-CON(Me)2] ({Me3N+(CH2)2O(CH2)2O(CH2)2CO}-[Pen]D(NMe2)T[Trp(7-Me)][Lys(Me)](Ac)[Pen]Y(CH2CH2OCH2CH2OCH2CH2NMe3+)[2Nal][Thp]EN[3Pal][Sar]-NMe2; disulfide 1-6), on IL-23R, the IC50 was found to be 3.4 nM. In addition, the EPSA in data set [1] (read-out: EPSA) was found to be 142 A^2.

On to `CC(=O)NCCCC[C@@H]1NC(=O)[C@H](Cc2c[nH]c3c(C)cccc23)NC(=O)[C@H]([C@@H](C)O)NC(=O)[C@H](CC(N)=O)NC(=O)[C@@H](NC(=O)CCCc2ccc(I)cc2)C(C)(C)SSC(C)(C)[C@@H](C(=O)N[C@@H](Cc2ccc(OCCCCC[N+](C)(C)C)cc2)C(=O)N[C@@H](Cc2ccc3ccccc3c2)C(=O)NC2(C(=O)N[C@@H](CCCCNC(=O)COc3ccc(-c4ccc(F)cc4F)cc3C(=O)O)C(=O)N[C@@H](CC(N)=O)C(=O)N[C@@H](Cc3cccnc3)C(=O)N(C)CC(N)=O)CCOCC2)NC1=O` [compound 525, IPBCO-Pen(3)-N-T-7MeW-K(Ac)-Pen(3)-TMAPF-2Nal-THP-K(DFN)-N-3Pya-Sar-CONH2], for which the IC50 on IL-23R worked out at 51 nM. In addition, in data set [1] (read-out: EPSA), the EPSA amounted to 195 A^2.

With `CC(=O)N(C)CCCC[C@@H]1NC(=O)[C@H](Cc2c[nH]c3c(C)cccc23)NC(=O)[C@H]([C@@H](C)O)NC(=O)[C@H](CC(=O)N(C)C)NC(=O)[C@@H](NC(=O)CCCCC[N+](C)(C)C)C(C)(C)SSC(C)(C)[C@@H](C(=O)N[C@@H](Cc2ccc(OCCCCC[N+](C)(C)C)cc2)C(=O)N[C@@H](Cc2ccc3ccccc3c2)C(=O)NC2(C(=O)N[C@@H](CCCCN(C)C(C)=O)C(=O)N[C@@H](CC(N)=O)C(=O)N[C@@H](Cc3cccnc3)C(=O)N(C)CC(=O)N(C)C)CCOCC2)NC1=O` [compound 343, 5cpaCO-Pen(3)-N(N(Me)2)-T-7MeW-K(NMeAc)-Pen(3)-TMAPF-2Nal-THP-K(NMeAc)-N-3Pya-Sar-CON(Me)2] ({Hexanoyl(6-NMe3+)}-[Pen]D(NMe2)T[Trp(7-Me)][Lys(Me)](Ac)[Pen]Y(X3)[2Nal][Thp][Lys(Me)](Ac)N[3Pal][Sar]-NMe2; disulfide 1-6), on IL-23R, the IC50 turned out to be 2 nM. In addition, the EPSA in data set [1] (read-out: EPSA) is 156 A^2.

Regarding `CC(=O)NCCCC[C@@H]1NC(=O)[C@H](Cc2c[nH]c3c(C)cccc23)NC(=O)[C@H]([C@@H](C)O)NC(=O)[C@H](CC(N)=O)NC(=O)[C@@H](NC(C)=O)C(C)(C)SSC(C)(C)[C@@H](C(=O)N[C@@H](Cc2ccc(OCC3CCC([N+](C)(C)C)CC3)cc2)C(=O)N[C@@H](Cc2ccc3ccccc3c2)C(=O)NC2(C(=O)N[C@@H](CCCCNC(C)=O)C(=O)N[C@@H](CC(N)=O)C(=O)N[C@@H](Cc3cccnc3)C(=O)N(C)CC(N)=O)CCOCC2)NC1=O` (single isomer, unassigned) [compound 531, MeCO-Pen(3)-N-T-7MeW-K(Ac)-Pen(3)-ACHMF(R*, S*)-2Nal-THP-K(Ac)-N-3Pya-Sar-CONH2], the IC50 on IL-23R came out at 3.7 nM. The same molecule registered an EPSA in data set [1] of 165.96 Å^2.

Regarding `CC(=O)NCCCC[C@H](NC(=O)C1(NC(=O)[C@H](Cc2ccc3ccccc3c2)NC(=O)[C@H](Cc2ccc(OCCN)cc2)NC(=O)[C@H]2NC(=O)[C@H](CCCCN(C)C(C)=O)NC(=O)[C@H](Cc3c[nH]c4c(C)cccc34)NC(=O)[C@H]([C@@H](C)O)NC(=O)[C@H](CC(N)=O)NC(=O)[C@@H](NC(=O)C(COCCOCC[N+](C)(C)C)NC(C)=O)C(C)(C)SSC2(C)C)CCOCC1)C(=O)N[C@@H](CC(N)=O)C(=O)N[C@@H](Cc1cccnc1)C(=O)N(C)CC(N)=O` (mixture of isomers) [compound 554, MeCO-APEG2Ser(RS)-Pen(3)-N-T-7MeW-K(Ac)-Pen(3)-AEF-2Nal-THP-K(Ac)-N-3Pya-Sar-CONH2], the IC50 at IL-23R is 3 nM. Besides, the EPSA in data set [1] (read-out: EPSA) stood at 171 A^2.

On to `CC(=O)NCCCC[C@@H]1NC(=O)[C@H](Cc2c[nH]c3c(C)cccc23)NC(=O)[C@H]([C@@H](C)O)NC(=O)[C@H](CC(N)=O)NC(=O)[C@@H](NC(C)=O)C(C)(C)SSC(C)(C)[C@@H](C(=O)N[C@@H](Cc2ccc(OCCCCCCCC[N+](C)(C)C)cc2)C(=O)N[C@@H](Cc2ccc3ccccc3c2)C(=O)NC2(C(=O)N[C@@H](CCCCNC(C)=O)C(=O)N[C@@H](CC(N)=O)C(=O)N[C@@H](Cc3cccnc3)C(=O)N(C)CC(N)=O)CCOCC2)NC1=O` [compound 456] (Ac-[Pen]NT[Trp(7-Me)]K(Ac)[Pen]Y(X8)[2Nal][Thp]K(Ac)N[3Pal][Sar]-NH2; disulfide 1-6 (inferred)), for which the IC50 on IL-23R is 1.5 nM. In addition, the EPSA in data set [1] (read-out: EPSA) amounted to 156 A^2.

On to `CC(=O)N(C)CCCC[C@@H]1NC(=O)[C@H](Cc2c[nH]c3c(C)cccc23)NC(=O)[C@H]([C@@H](C)O)NC(=O)[C@H](CC(=O)N(C)C)NC(=O)[C@@H](NC(=O)CCOCCOCC[N+](C)(C)C)C(C)(C)SSC(C)(C)[C@@H](C(=O)N[C@@H](Cc2ccc(OCCOCCOCC[N+]3(C)CCN(C)CC3)cc2)C(=O)N[C@@H](Cc2ccc3ccccc3c2)C(=O)NC2(C(=O)N[C@@H](CCCCN(C)C(C)=O)C(=O)N[C@@H](CC(N)=O)C(=O)N[C@@H](Cc3cccnc3)C(=O)N(C)CC(=O)N(C)C)CCOCC2)NC1=O` [compound 224, cPEG3aCO-Pen(3)-N(N(Me)2)-T-7MeW-K(NMeAc)-Pen(3)-MPzPEG3F-2Nal-THP-K(NMeAc)-N-3Pya-Sar-CON(Me)2] ({Me3N+(CH2)2O(CH2)2O(CH2)2CO}-[Pen]D(NMe2)T[Trp(7-Me)][Lys(Me)](Ac)[Pen]Y(X22)[2Nal][Thp][Lys(Me)](Ac)N[3Pal][Sar]-NMe2; disulfide 1-6), for which the IC50 on IL-23R came out at 3 nM. Moreover, in data set [1] (read-out: EPSA), the EPSA stood at 139 A^2.

Regarding `CC(=O)NCCCC[C@@H]1NC(=O)[C@H](Cc2c[nH]c3c(C)cccc23)NC(=O)[C@H]([C@@H](C)O)NC(=O)[C@H](CC(N)=O)NC(=O)[C@@H](NC(C)=O)C(C)(C)SSC(C)(C)[C@@H](C(=O)N[C@@H](Cc2ccc(OCCN)cc2)C(=O)N[C@@H](Cc2ccc3ccccc3c2)C(=O)NC2(C(=O)N[C@@H](CCCCNC(C)=O)C(=O)N[C@@H](CC(N)=O)C(=O)N(C)C)CCOCC2)NC1=O` [compound 153] (Ac-[Pen]NT[Trp(7-Me)]K(Ac)[Pen][AEF][2Nal][Thp]K(Ac)N-NMe2; disulfide 1-6 (inferred)), the IC50 on IL-23R came out at 270 nM. Moreover, the EPSA in data set [1] (read-out: EPSA) is 171 A^2.

Take `CC(=O)N(C)CCCC[C@@H]1NC(=O)[C@H](Cc2c[nH]c3c(C)cccc23)NC(=O)[C@H]([C@@H](C)O)NC(=O)[C@H](CC(=O)N(C)C)NC(=O)[C@@H](NC(=O)CCOCCOCC[N+](C)(C)C)C(C)(C)SSC(C)(C)[C@@H](C(=O)N[C@@H](Cc2ccc(OCCOCCOCC[N+](C)(C)C)cc2)C(=O)N[C@@H](Cc2ccc3ccccc3c2)C(=O)NC2(C(=O)N[C@@H](C)C(=O)N[C@@H](CC(N)=O)C(=O)N[C@@H](Cc3cccnc3)C(=O)N(C)CC(=O)N(C)C)CCOCC2)NC1=O` [compound 466, cPEG3aCO-Pen(3)-N(N(Me)2)-T-7MeW-K(NMeAc)-Pen(3)-APEG3F-2Nal-THP-A-N-3Pya-Sar-CON(Me)2] ({Me3N+(CH2)2O(CH2)2O(CH2)2CO}-[Pen]D(NMe2)T[Trp(7-Me)][Lys(Me)](Ac)[Pen]Y(CH2CH2OCH2CH2OCH2CH2NMe3+)[2Nal][Thp]AN[3Pal][Sar]-NMe2; disulfide 1-6): on IL-23R, the IC50 stood at 1.8 nM. For the same molecule, in data set [1] (read-out: EPSA), the EPSA was determined as 153 A^2.

For `CC(=O)NCCCC[C@@H]1NC(=O)[C@H](Cc2c[nH]c3c(C)cccc23)NC(=O)[C@H]([C@@H](C)O)NC(=O)[C@H](CC(N)=O)NC(=O)[C@@H](NC(=O)[C@@H](CCC(=O)N[C@H](CC(=O)O)C[N+](C)(C)C)NC(C)=O)C(C)(C)SSC(C)(C)[C@@H](C(=O)N[C@@H](Cc2ccc(OCCN)cc2)C(=O)N[C@@H](Cc2ccc3ccccc3c2)C(=O)NC2(C(=O)N[C@@H](CCCCNC(C)=O)C(=O)N[C@@H](CC(N)=O)C(=O)N[C@@H](Cc3cccnc3)C(=O)N(C)CC(N)=O)CCOCC2)NC1=O` [compound 125] (Ac-[dE](X19)[Pen]NT[Trp(7-Me)]K(Ac)[Pen][AEF][2Nal][Thp]K(Ac)N[3Pal][Sar]-NH2; disulfide 2-7 (inferred)), the IC50 at IL-23R amounted to 2 nM. For the same molecule, the EPSA in data set [1] (read-out: EPSA) was found to be 181 A^2.
